Data on 17 compounds can be found in patent US10670605B2, “Cysteine reactive probes and uses thereof” (The Scripps Research Institute, priority 2015, dated 2020).

Assay in all cases: Competitive isoTOP-ABPP in situ (fragment-treated cells)
What all share (type): cell-based

Experiment [1] concerns the target T1, cysteines in MDA-MB-231 and Ramos cells (Homo sapiens, UniProt A6NDU8).
T1 sequence (A6NDU8 1-294): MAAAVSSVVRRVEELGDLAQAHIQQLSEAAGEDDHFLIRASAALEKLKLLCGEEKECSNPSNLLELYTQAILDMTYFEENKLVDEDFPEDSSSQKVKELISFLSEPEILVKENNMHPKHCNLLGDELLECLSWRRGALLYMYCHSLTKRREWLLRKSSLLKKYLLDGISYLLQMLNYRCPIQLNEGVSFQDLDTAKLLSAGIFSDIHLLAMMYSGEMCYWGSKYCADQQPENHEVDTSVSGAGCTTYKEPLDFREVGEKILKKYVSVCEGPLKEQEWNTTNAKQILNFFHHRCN

In experiment [2] the target is T2, cysteines in MDA-MB-231 and Ramos cells (Homo sapiens, UniProt P11216).
T2 sequence (P11216 1-843): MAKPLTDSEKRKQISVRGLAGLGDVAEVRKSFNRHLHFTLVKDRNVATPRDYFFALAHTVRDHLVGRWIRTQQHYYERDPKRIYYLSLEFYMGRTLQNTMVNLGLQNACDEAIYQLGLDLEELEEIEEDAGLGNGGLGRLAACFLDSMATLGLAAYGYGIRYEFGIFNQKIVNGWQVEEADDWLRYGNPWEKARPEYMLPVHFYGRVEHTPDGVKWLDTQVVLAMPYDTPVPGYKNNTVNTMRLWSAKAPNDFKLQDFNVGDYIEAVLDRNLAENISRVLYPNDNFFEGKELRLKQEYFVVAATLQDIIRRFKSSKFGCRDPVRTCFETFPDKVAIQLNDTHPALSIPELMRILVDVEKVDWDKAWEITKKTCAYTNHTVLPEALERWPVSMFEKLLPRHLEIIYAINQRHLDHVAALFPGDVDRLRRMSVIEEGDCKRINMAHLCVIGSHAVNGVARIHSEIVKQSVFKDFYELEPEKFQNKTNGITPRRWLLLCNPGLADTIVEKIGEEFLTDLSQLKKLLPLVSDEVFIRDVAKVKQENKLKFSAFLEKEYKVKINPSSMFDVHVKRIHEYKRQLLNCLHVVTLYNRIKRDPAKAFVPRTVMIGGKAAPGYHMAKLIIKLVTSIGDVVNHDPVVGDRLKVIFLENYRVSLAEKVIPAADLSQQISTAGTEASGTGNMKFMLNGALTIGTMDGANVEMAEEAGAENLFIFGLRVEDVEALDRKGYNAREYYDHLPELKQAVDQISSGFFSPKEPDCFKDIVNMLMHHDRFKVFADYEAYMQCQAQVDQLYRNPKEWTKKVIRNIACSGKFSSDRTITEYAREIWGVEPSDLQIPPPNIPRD

For experiment [3], the target named is T3, cysteines in MDA-MB-231 and Ramos cells (Homo sapiens, UniProt Q9NQW6).
T3 sequence (Q9NQW6 1-1124): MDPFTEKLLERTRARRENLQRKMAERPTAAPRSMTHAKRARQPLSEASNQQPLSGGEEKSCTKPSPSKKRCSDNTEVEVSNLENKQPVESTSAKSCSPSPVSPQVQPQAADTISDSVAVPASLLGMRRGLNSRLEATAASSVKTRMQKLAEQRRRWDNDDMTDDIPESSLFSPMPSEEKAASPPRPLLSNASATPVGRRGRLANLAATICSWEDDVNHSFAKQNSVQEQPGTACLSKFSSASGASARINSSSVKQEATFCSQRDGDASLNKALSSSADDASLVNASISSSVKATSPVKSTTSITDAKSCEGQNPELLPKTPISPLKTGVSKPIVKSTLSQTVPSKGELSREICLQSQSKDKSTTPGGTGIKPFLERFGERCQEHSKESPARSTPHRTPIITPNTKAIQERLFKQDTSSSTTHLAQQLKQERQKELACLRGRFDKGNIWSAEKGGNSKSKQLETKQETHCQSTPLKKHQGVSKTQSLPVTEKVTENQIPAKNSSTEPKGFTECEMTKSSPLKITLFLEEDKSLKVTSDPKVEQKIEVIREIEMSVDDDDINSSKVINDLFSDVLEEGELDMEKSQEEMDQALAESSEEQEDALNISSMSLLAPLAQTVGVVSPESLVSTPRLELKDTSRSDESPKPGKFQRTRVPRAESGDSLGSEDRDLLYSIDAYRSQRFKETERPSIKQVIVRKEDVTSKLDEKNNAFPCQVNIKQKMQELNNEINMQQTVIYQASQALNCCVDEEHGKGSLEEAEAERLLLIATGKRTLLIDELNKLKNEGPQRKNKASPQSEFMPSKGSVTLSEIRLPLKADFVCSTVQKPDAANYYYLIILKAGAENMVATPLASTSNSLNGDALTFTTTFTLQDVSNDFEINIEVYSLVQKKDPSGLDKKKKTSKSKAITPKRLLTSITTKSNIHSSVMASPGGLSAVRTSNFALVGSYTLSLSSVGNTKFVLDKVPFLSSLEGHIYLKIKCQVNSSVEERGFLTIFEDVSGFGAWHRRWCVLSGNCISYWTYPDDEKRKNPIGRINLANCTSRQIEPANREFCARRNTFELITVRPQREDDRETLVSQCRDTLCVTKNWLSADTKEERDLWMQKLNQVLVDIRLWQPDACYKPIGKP

Molecules are shown by their SMILES.

For `COc1ccc2c(c1)CCCN2C(=O)CCl` [compound 2], in experiment [1] (200 μM, insitu, 231), the “isoTOP-ABPP reactivity A6NDU8_C179 C5orf51” value was found to be 4.2.
On to `COc1ccc(C2CC(c3cccs3)=NN2C(=O)CCl)cc1` (stereo not shown) [compound 4], for which, in experiment [1] (100 μM in situ 231), the “isoTOP-ABPP reactivity A6NDU8_C179 C5orf51” value is on record as 3.0. The “isoTOP-ABPP reactivity P11216_C326 PYGB” value in experiment [2] (100 μM in situ 231) turned out to be 1.7. Also, the “isoTOP-ABPP reactivity Q9NQW6_C712 ANLN” value in experiment [3] (100 μM in situ 231) turned out to be 4.1.
With `COc1cc2c(cc1OC)CN(C(=O)CCl)CC2` [compound 8], in experiment [2] (200 μM, insitu, 231), the “isoTOP-ABPP reactivity P11216_C326 PYGB” value came out at 20.0. In addition, the “isoTOP-ABPP reactivity Q9NQW6_C712 ANLN” value in experiment [3] (200 μM, insitu, 231) came out at 14.1.
Regarding `O=C(CCl)N1CCC(Cc2ccccc2)CC1` [compound 9], in experiment [1] (200 μM, insitu, 231), the “isoTOP-ABPP reactivity A6NDU8_C179 C5orf51” value was 20.0. In addition, the “isoTOP-ABPP reactivity P11216_C326 PYGB” value in experiment [2] (200 μM, insitu, 231) is 2.6. Besides, the “isoTOP-ABPP reactivity Q9NQW6_C712 ANLN” value in experiment [3] (200 μM, insitu, 231) was 3.1.
In the case of `O=C(CCl)N1CCN(S(=O)(=O)c2ccccc2F)CC1` [compound 10], in experiment [1] (200 μM, insitu, 231), the “isoTOP-ABPP ratio A6NDU8_C179” value is listed as 1.3. In addition, the “isoTOP-ABPP ratio P11216_C326” value in experiment [2] (200 μM, insitu, 231) came to 8.6. Further, in experiment [3] (200 μM, insitu, 231), the “isoTOP-ABPP ratio Q9NQW6_C712” value came to 11.2.
Regarding `Cn1cc(S(=O)(=O)N2CCOCC2)cc1C(=O)NC(=O)CCl` [compound 11], the “isoTOP-ABPP ratio A6NDU8_C179” value in experiment [1] (100 μM in situ 231) is 0.7. The “isoTOP-ABPP ratio P11216_C326” value in experiment [2] (100 μM in situ 231) is 0.8. For the same compound, the “isoTOP-ABPP ratio Q9NQW6_C712” value in experiment [3] (100 μM in situ 231) was found to be 0.9.
For the compound `O=C(CCl)NC(=O)NC12CC3CC(CC(C3)C1)C2` [compound 12], the “isoTOP-ABPP ratio P11216_C326” value in experiment [2] (200 μM, insitu, 231) came to 3.9. Also, the “isoTOP-ABPP ratio Q9NQW6_C712” value in experiment [3] (200 μM, insitu, 231) is given as 16.7.
Consider `O=C(CCl)NCCc1c[nH]c2ccccc12` [compound 13], for which the “isoTOP-ABPP ratio A6NDU8_C179” value in experiment [1] (200 μM, insitu, 231) amounted to 0.8. Besides, in experiment [2] (200 μM, insitu, 231), the “isoTOP-ABPP ratio P11216_C326” value is reported as 1.3. The “isoTOP-ABPP ratio Q9NQW6_C712” value in experiment [3] (200 μM, insitu, 231) is listed as 1.3.
Regarding `O=C(CCl)NC12CC3CC(CC(C3)C1)C2` [compound 21], the “isoTOP-ABPP ratio A6NDU8_C179” value in experiment [1] (200 μM, insitu, 231) stood at 0.9. In experiment [2] (200 μM, insitu, 231), the “isoTOP-ABPP ratio P11216_C326” value was 0.9.
For the compound `CC(C)CCOCCNC(=O)CCl` [compound 27], the “isoTOP-ABPP ratio A6NDU8_C179” value in experiment [1] (200 μM, insitu, 231) came out at 0.7. The “isoTOP-ABPP ratio P11216_C326” value in experiment [2] (200 μM, insitu, 231) stood at 0.7. In addition, in experiment [3] (200 μM, insitu, 231), the “isoTOP-ABPP ratio Q9NQW6_C712” value is listed as 1.0.
Consider `COc1ccccc1OCCNC(=O)CCl` [compound 28], for which the “isoTOP-ABPP ratio A6NDU8_C179” value in experiment [1] (200 μM, insitu, 231) was 0.8. The “isoTOP-ABPP ratio Q9NQW6_C712” value in experiment [3] (200 μM, insitu, 231) is 0.9.
Regarding `O=C(CCl)N1CCN(CC(=O)N2CCOCC2)CC1` [compound 29], in experiment [1] (200 μM, insitu, ramos), the “isoTOP-ABPP ratio A6NDU8_C179” value came to 1.0.
Regarding `C=CC(=O)N(Cc1cccnc1)c1cc(C(F)(F)F)cc(C(F)(F)F)c1` [compound 31], in experiment [2] (200 μM, insitu, 231), the “isoTOP-ABPP ratio P11216_C326” value is on record as 0.5. In experiment [3] (200 μM, insitu, 231), the “isoTOP-ABPP ratio Q9NQW6_C712” value is 0.7.
`C=CC(=O)Nc1cc(F)c(N2CCN(C(=O)OC(C)(C)C)CC2)c(F)c1` [compound 38]: in experiment [1] (200 μM, insitu, 231), the “isoTOP-ABPP ratio A6NDU8_C179” value worked out at 1.4. The “isoTOP-ABPP ratio P11216_C326” value in experiment [2] (200 μM, insitu, 231) turned out to be 1.2. Besides, the “isoTOP-ABPP ratio Q9NQW6_C712” value in experiment [3] (200 μM, insitu, 231) is 1.5.
The matching figures for `Cc1ccc(C=C(C#N)C(=O)NCCN2CCOCC2)cc1` [compound 41]: 0.6, 0.7 and 0.7.
The corresponding values for `CC1CCc2ccccc2N1C(=O)CCl` (stereo not shown) [compound 45] are 20.0, 5.3 and 5.9.
Take `O=C(CCl)Nc1cccc2ncccc12` [compound 51]: in experiment [2] (200 μM, insitu, 231), the “isoTOP-ABPP ratio P11216_C326” value is 0.8.
